The results in this text go back to US9409952B2, “Peptide-compound cyclization method” (Chugai Seiyaku Kabushiki Kaisha, priority 2011, dated 2016).

Series [1] in a line: PAMPA (parallel artificial membrane permeability assay). The class given is in vitro ADME. The conditions noted are these: PAMPA. The essentials: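 Artificial membrane was 10% (w/v) egg lecithin plus 0.5% (w/v) cholesterol in dodecane on a PVDF filter. A 10 mM DMSO stock was added at 0.5% (v/v) to donor buffer (50 mM MOPSO, pH 6.5, 5.0% glycocholic acid). After 18 h at 37 °C, LC/MS or LC/UV gave donor and acceptor levels for Pe.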

The nature of series [2]: Metabolic stability in human hepatic microsome. The format is in vitro ADME.
The mark [3] stands for this setting: membrane permeation rate (Pe), 50 mM MOPSO buffer pH 6.5 with 5.0% glycocholic acid, 37° C., 18 hours, read-out: iPAMPA Pe.
The mark [4] stands for this setting: microsomes, pH 7.4, human hepatic microsome, NADPH(+), read-out: CL NADPH(+).

Read-outs that look alike come from different tables or passages of the source. Starred links: 1 amine or outer side, 2 acyl side, 3 side chain; linkers in the order of their positions; H or OH if unused. Positions of bridges follow the written chain, without caps; N, C: chain ends. Non-standard residues stand in square brackets, D forms with d. Residues, ends and D or L forms follow the SMILES beside them. *: point of attachment. NMeF = CN[C@@H](Cc1ccccc1)C(=O)O; NMeI = CC[C@H](C)[C@H](NC)C(=O)O; NMeβAla = CN(CCC(=O)[*:2])[*:1]; NMeL = CN[C@@H](CC(C)C)C(=O)O; NMeV = CN[C@H](C(=O)O)C(C)C; NMeA = CN[C@@H](C)C(=O)O; Piperidide = C1CCN(*)CC1; tBu = CC(C)(C)*

For the compound `CC[C@H](C)[C@H]1C(=O)N[C@@H](C)C(=O)N[C@@H](Cc2ccccc2)C(=O)N(C)[C@@H](Cc2ccccc2)C(=O)N[C@@H]([C@@H](C)O)C(=O)N(C)[C@@H](C)C(=O)N[C@@H](CC(C)C)C(=O)N[C@H](C(=O)N2CCCCC2)CC(=O)N[C@H](C(C)C)C(=O)N(C)[C@@H](C(C)C)C(=O)NCC(=O)N(C)[C@@H](CC(C)C)C(=O)N1C` [DP-217] ([dV][NMeV]G[NMeL][NMeI]AF[NMeF]T[NMeA]LD-Piperidide; lactam N-12), the Papp at 18 hours, 50 µM in series [1] (setting [3]) amounted to 38 ×10⁻⁶ cm/s. Besides, the microsomal CLint at 1 uM in series [2] (setting [4]) came to 37 µL/min/mg.
`CC[C@H](C)[C@H]1C(=O)N[C@@H](CC(C)C)C(=O)N(C)[C@@H](C)C(=O)N(C)[C@@H](Cc2ccccc2)C(=O)NCC(=O)N[C@@H]([C@@H](C)O)C(=O)N[C@@H](Cc2ccccc2)C(=O)N(C)[C@@H](CC(C)C)C(=O)N2CCC[C@H]2C(=O)N[C@H](C(=O)N2CCCCC2)CC(=O)N[C@H](C(C)C)C(=O)N[C@@H](CC(C)C)C(=O)N1C` [DP-218] ([dV]L[NMeI]L[NMeA][NMeF]GTF[NMeL]PD-Piperidide; lactam N-12): the Papp at 18 hours, 50 µM in series [1] (setting [3]) was determined as 33 ×10⁻⁶ cm/s. Besides, the microsomal CLint at 1 uM in series [2] (human, liver microsomes, pH 7.4, human hepatic microsome, NADPH(+), read-out: CL NADPH(+)) amounted to 18 µL/min/mg.
For `CC[C@H](C)[C@H]1C(=O)N[C@@H](C)C(=O)N(C)[C@@H](CC(C)C)C(=O)N[C@@H]([C@@H](C)O)C(=O)N[C@@H](Cc2ccccc2)C(=O)N(C)[C@@H](Cc2ccccc2)C(=O)N(C)[C@@H](CC(C)C)C(=O)N[C@@H](COC(C)(C)C)C(=O)N(C)[C@@H](CC(C)C)C(=O)N(C)[C@@H](C)C(=O)N[C@H](C(=O)N2CCCCC2)CC(=O)N[C@H](C(C)C)C(=O)N1C` [DP-219] ([dV][NMeI]A[NMeL]TF[NMeF][NMeL]S(tBu)[NMeL][NMeA]D-Piperidide; lactam N-12), the Papp at 18 hours, 50 µM in series [1] (setting [3]) came to 1.3 ×10⁻⁶ cm/s. Moreover, in series [2] (setting [4]), the microsomal CLint at 1 uM came out at 49 µL/min/mg.
`CC[C@H](C)[C@H]1C(=O)NCC(=O)N(C)[C@@H](CC(C)C)C(=O)N[C@@H](CC(C)C)C(=O)N[C@H](C(=O)N2CCCCC2)CC(=O)N(C)[C@@H](C)C(=O)N[C@@H](CC(C)C)C(=O)N(C)[C@@H](C)C(=O)N[C@@H]([C@@H](C)O)C(=O)N2CCC[C@H]2C(=O)N(C)[C@@H](Cc2ccccc2)C(=O)N[C@@H](Cc2ccccc2)C(=O)N1C` [DP-220] ([NMeA]L[NMeA]TP[NMeF]F[NMeI]G[NMeL]LD-Piperidide; lactam N-12) yielded a Papp at 18 hours, 50 µM in series [1] (pH 6.5) of 33 ×10⁻⁶ cm/s. Besides, the microsomal CLint at 1 uM in series [2] (human, microsomes, pH 7.4, CL NADPH(+)) was 26 µL/min/mg.
`CC[C@H](C)[C@H]1C(=O)N[C@@H](Cc2ccccc2)C(=O)N[C@H](C(=O)N2CCCCC2)CC(=O)N(C)CCC(=O)N(C)[C@@H](C(C)C)C(=O)N[C@@H](Cc2ccccc2)C(=O)N[C@@H](CC(C)C)C(=O)N(C)[C@@H](C)C(=O)N[C@@H]([C@@H](C)O)C(=O)N[C@@H](CC(C)C)C(=O)N(C)[C@@H](CC(C)C)C(=O)NCC(=O)N1C` [DP-221] ([NMeβAla][NMeV]FL[NMeA]TL[NMeL]G[NMeI]FD-Piperidide; lactam N-12): in series [1] (setting [3]), the Papp at 18 hours, 50 µM worked out at 31 ×10⁻⁶ cm/s. Also, the microsomal CLint at 1 uM in series [2] (setting [4]) is 75 µL/min/mg.
Turning to `CC[C@H](C)[C@H]1C(=O)N[C@H](C(=O)N2CCCCC2)CC(=O)N(C)CCC(=O)N[C@@H](Cc2ccccc2)C(=O)N(C)[C@@H](CC(C)C)C(=O)N[C@@H](COC(C)(C)C)C(=O)NCC(=O)N2CCC[C@H]2C(=O)N[C@@H]([C@@H](C)O)C(=O)N[C@@H](CC(C)C)C(=O)N(C)[C@@H](C)C(=O)N[C@@H](Cc2ccccc2)C(=O)N1C` [DP-222] ([NMeβAla]F[NMeL]S(tBu)GPTL[NMeA]F[NMeI]D-Piperidide; lactam N-12), in series [1] (setting [3]), the Papp at 18 hours, 50 µM stood at 16 ×10⁻⁶ cm/s. Also, the microsomal CLint at 1 uM in series [2] (setting [4]) stood at 30 µL/min/mg.
